From patent US20050197350A1, “Novel quinoline, tetrahydroquinazoline, and pyrimidine derivatives and methods of treatment related to the use thereof” (TAISHO PHARMACEUTICAL CO., LTD., priority 2003, published 2005)

These compounds were tested on MCH receptors (assay: MCH receptor activity class (method not given)). Details: class by percent of control at 10^-7 M or IC50.
In the case of `CCOc1ccccc1NC(=O)N[C@H]1CC[C@@H](Nc2nc3c(c(N(C)C)n2)CCCC3)CC1` [compound 1712], the class is reported as 2 (Class 2: The value of percent of control at 10^−7 M was from 40% to 60% or the value of IC′50 was from 50 nM to 200 nM.). For `CN(C)c1nc(N[C@H]2CC[C@@H](NC(=O)NCc3ccccc3F)CC2)nc2c1CCCC2` [compound 1713], the class was 2 (Class 2: The value of percent of control at 10^−7 M was from 40% to 60% or the value of IC′50 was from 50 nM to 200 nM.). For `Cc1cc([N+](=O)[O-])ccc1NC(=O)N[C@H]1CC[C@@H](Nc2nc3c(c(N(C)C)n2)CCCC3)CC1` [compound 1714], the class was 3 (Class 3 The value of percent of control at 10^−7 M was more than 60% or the value of IC50 was more than 200 nM.). `Cc1ccc([N+](=O)[O-])cc1NC(=O)N[C@H]1CC[C@@H](Nc2nc3c(c(N(C)C)n2)CCCC3)CC1` [compound 1715] was tested, and the class was 3 (Class 3 The value of percent of control at 10^−7 M was more than 60% or the value of IC50 was more than 200 nM.). With `Cc1ccccc1CNC(=O)N[C@H]1CC[C@@H](Nc2nc3c(c(N(C)C)n2)CCCC3)CC1` [compound 1716] the class was 3 (Class 3 The value of percent of control at 10^−7 M was more than 60% or the value of IC50 was more than 200 nM.). For `CN(C)c1nc(N[C@H]2CC[C@@H](NC(=O)Nc3ccccc3[N+](=O)[O-])CC2)nc2c1CCCC2` [compound 1717], the class was 3 (Class 3 The value of percent of control at 10^−7 M was more than 60% or the value of IC50 was more than 200 nM.). With `CN(C)c1nc(N[C@H]2CC[C@@H](NC(=O)Nc3ccc4c(c3)OCO4)CC2)nc2c1CCCC2` [compound 1718] the class was 3 (Class 3 The value of percent of control at 10^−7 M was more than 60% or the value of IC50 was more than 200 nM.). With `COc1cc(NC(=O)N[C@H]2CC[C@@H](Nc3nc4c(c(N(C)C)n3)CCCC4)CC2)cc(OC)c1OC` [compound 1719] the class was 1 (Class 1: The value of percent of control at 10^−7 M was less than 40% or the value of IC50 was less than 50 nM.). For `COc1ccc(NC(=O)N[C@H]2CC[C@@H](Nc3nc4c(c(N(C)C)n3)CCCC4)CC2)cc1OC` [compound 1720, N-(3,4-dimethoxyphenyl)-N′-(cis-4-{[4-(dimethylamino)-5,6,7,8-tetrahydroquinazolin-2-yl]amino}cyclohexyl)urea], the class was 2 (Class 2: The value of percent of control at 10^−7 M was from 40% to 60% or the value of IC′50 was from 50 nM to 200 nM.). In the case of `COc1ccc(NC(=O)N[C@H]2CC[C@@H](Nc3nc4c(c(N(C)C)n3)CCCC4)CC2)cc1Cl` [compound 1721], the class is reported as 3 (Class 3 The value of percent of control at 10^−7 M was more than 60% or the value of IC50 was more than 200 nM.). With `CN(C)c1nc(N[C@H]2CC[C@@H](NC(=O)Nc3ccc(Br)cc3C(F)(F)F)CC2)nc2c1CCCC2` [compound 1722] the class was 3 (Class 3 The value of percent of control at 10^−7 M was more than 60% or the value of IC50 was more than 200 nM.). With `CN(C)c1nc(N[C@H]2CC[C@@H](NC(=O)NCc3ccc(Br)cc3)CC2)nc2c1CCCC2` [compound 1723] the class was 3 (Class 3 The value of percent of control at 10^−7 M was more than 60% or the value of IC50 was more than 200 nM.). `Cc1cc(Cl)ccc1NC(=O)N[C@H]1CC[C@@H](Nc2nc3c(c(N(C)C)n2)CCCC3)CC1` [compound 1724, N-(4-chloro-2-methylphenyl)-N′-(cis-4-{[4-(dimethylamino)-5,6,7,8-tetrahydroquinazolin-2-yl]amino}cyclohexyl)urea] was tested, and the class was 2 (Class 2: The value of percent of control at 10^−7 M was from 40% to 60% or the value of IC′50 was from 50 nM to 200 nM.). With `CN(C)c1nc(N[C@H]2CC[C@@H](NC(=O)NCc3ccc(F)cc3)CC2)nc2c1CCCC2` [compound 1725] the class was 2 (Class 2: The value of percent of control at 10^−7 M was from 40% to 60% or the value of IC′50 was from 50 nM to 200 nM.). With `COc1ccc(NC(=O)N[C@H]2CC[C@@H](Nc3nc4c(c(N(C)C)n3)CCCC4)CC2)c(C)c1` [compound 1726] the class was 2 (Class 2: The value of percent of control at 10^−7 M was from 40% to 60% or the value of IC′50 was from 50 nM to 200 nM.). With `COc1cc(OC)c(NC(=O)N[C@H]2CC[C@@H](Nc3nc4c(c(N(C)C)n3)CCCC4)CC2)cc1Cl` [compound 1727] the class was 1 (Class 1: The value of percent of control at 10^−7 M was less than 40% or the value of IC50 was less than 50 nM.). `Cc1cc(Br)ccc1NC(=O)N[C@H]1CC[C@@H](Nc2nc3c(c(N(C)C)n2)CCCC3)CC1` [compound 1729, N-(4-bromo-2-methylphenyl)-N′-(cis-4-{[4-(dimethylamino)-5,6,7,8-tetrahydroquinazolin-2-yl]amino}cyclohexyl)urea] was tested, and the class was 2 (Class 2: The value of percent of control at 10^−7 M was from 40% to 60% or the value of IC′50 was from 50 nM to 200 nM.). For `CN(C)c1nc(N[C@H]2CC[C@@H](NC(=O)Nc3ccc4c(c3)OCCO4)CC2)nc2c1CCCC2` [compound 1731], the class was 3 (Class 3 The value of percent of control at 10^−7 M was more than 60% or the value of IC50 was more than 200 nM.). `CC(C)c1cc(Br)c(NC(=O)N[C@H]2CC[C@@H](Nc3nc4c(c(N(C)C)n3)CCCC4)CC2)c(Br)c1` [compound 1732] was tested, and the class was 3 (Class 3 The value of percent of control at 10^−7 M was more than 60% or the value of IC50 was more than 200 nM.). For `COc1ccc(NC(=O)N[C@H]2CC[C@@H](Nc3nc4c(c(N(C)C)n3)CCCC4)CC2)cc1OC1CCCC1` [compound 1733], the class was 3 (Class 3 The value of percent of control at 10^−7 M was more than 60% or the value of IC50 was more than 200 nM.). In the case of `CN(C)c1nc(N[C@H]2CC[C@@H](NC(=O)Nc3ccc4c(c3)OCCCO4)CC2)nc2c1CCCC2` [compound 1734], the class is reported as 3 (Class 3 The value of percent of control at 10^−7 M was more than 60% or the value of IC50 was more than 200 nM.). `CCCCc1ccc(NC(=O)N[C@H]2CC[C@@H](Nc3nc4c(c(N(C)C)n3)CCCC4)CC2)c(C)c1` [compound 1735] was tested, and the class was 3 (Class 3 The value of percent of control at 10^−7 M was more than 60% or the value of IC50 was more than 200 nM.). For `Cc1onc(-c2ccccc2)c1NC(=O)N[C@H]1CC[C@@H](Nc2nc3c(c(N(C)C)n2)CCCC3)CC1` [compound 1736], the class was 1 (Class 1: The value of percent of control at 10^−7 M was less than 40% or the value of IC50 was less than 50 nM.). With `CN(C)c1nc(N[C@H]2CC[C@@H](NC(=S)Nc3ccc(Br)cc3)CC2)nc2c1CCCC2` [compound 1737] the class was 3 (Class 3 The value of percent of control at 10^−7 M was more than 60% or the value of IC50 was more than 200 nM.). For `CN(C)c1nc(N[C@H]2CC[C@@H](NC(=S)Nc3ccc(C#N)cc3)CC2)nc2c1CCCC2` [compound 1738], the class was 3 (Class 3 The value of percent of control at 10^−7 M was more than 60% or the value of IC50 was more than 200 nM.). `CN(C)c1nc(N[C@H]2CC[C@@H](NC(=S)Nc3ccc(Cl)cc3Cl)CC2)nc2c1CCCC2` [compound 1739] was tested, and the class was 3 (Class 3 The value of percent of control at 10^−7 M was more than 60% or the value of IC50 was more than 200 nM.). `COc1ccc(NC(=S)N[C@H]2CC[C@@H](Nc3nc4c(c(N(C)C)n3)CCCC4)CC2)c(OC)c1` [compound 1740, N-(2,4-dimethoxyphenyl)-N′-(cis-4-{[4-(dimethylamino)-5,6,7,8-tetrahydroquinazolin-2-yl]amino}cyclohexyl)thiourea] was tested, and the class was 1 (Class 1: The value of percent of control at 10^−7 M was less than 40% or the value of IC50 was less than 50 nM.). With `Cc1cccc(C)c1NC(=S)N[C@H]1CC[C@@H](Nc2nc3c(c(N(C)C)n2)CCCC3)CC1` [compound 1741] the class was 3 (Class 3 The value of percent of control at 10^−7 M was more than 60% or the value of IC50 was more than 200 nM.). With `CCc1cccc(C(C)C)c1NC(=S)N[C@H]1CC[C@@H](Nc2nc3c(c(N(C)C)n2)CCCC3)CC1` [compound 1742] the class was 3 (Class 3 The value of percent of control at 10^−7 M was more than 60% or the value of IC50 was more than 200 nM.). For `COc1ccccc1NC(=S)N[C@H]1CC[C@@H](Nc2nc3c(c(N(C)C)n2)CCCC3)CC1` [compound 1743], the class was 3 (Class 3 The value of percent of control at 10^−7 M was more than 60% or the value of IC50 was more than 200 nM.). `CN(C)c1nc(N[C@H]2CC[C@@H](NC(=S)Nc3cccc4ccccc34)CC2)nc2c1CCCC2` [compound 1744] was tested, and the class was 3 (Class 3 The value of percent of control at 10^−7 M was more than 60% or the value of IC50 was more than 200 nM.). `COc1cc(NC(=S)N[C@H]2CC[C@@H](Nc3nc4c(c(N(C)C)n3)CCCC4)CC2)cc(OC)c1OC` [compound 1745] was tested, and the class was 1 (Class 1: The value of percent of control at 10^−7 M was less than 40% or the value of IC50 was less than 50 nM.). In the case of `COc1ccc(NC(=S)N[C@H]2CC[C@@H](Nc3nc4c(c(N(C)C)n3)CCCC4)CC2)cc1OC` [compound 1746, N-(3,4-dimethoxyphenyl)-N′-(cis-4-{[4-(dimethylamino)-5,6,7,8-tetrahydroquinazolin-2-yl]amino}cyclohexyl)thiourea], the class is reported as 1 (Class 1: The value of percent of control at 10^−7 M was less than 40% or the value of IC50 was less than 50 nM.). For `CN(C)c1nc(N[C@H]2CC[C@@H](NC(=S)Nc3ccc(N(C)C)c4ccccc34)CC2)nc2c1CCCC2` [compound 1747], the class was 2 (Class 2: The value of percent of control at 10^−7 M was from 40% to 60% or the value of IC′50 was from 50 nM to 200 nM.). In the case of `CCc1ccccc1NC(=S)N[C@H]1CC[C@@H](Nc2nc3c(c(N(C)C)n2)CCCC3)CC1` [compound 1748], the class is reported as 3 (Class 3 The value of percent of control at 10^−7 M was more than 60% or the value of IC50 was more than 200 nM.). `COc1cc([N+](=O)[O-])ccc1NC(=S)N[C@H]1CC[C@@H](Nc2nc3c(c(N(C)C)n2)CCCC3)CC1` [compound 1749] was tested, and the class was 3 (Class 3 The value of percent of control at 10^−7 M was more than 60% or the value of IC50 was more than 200 nM.). `COc1ccc(C)cc1NC(=S)N[C@H]1CC[C@@H](Nc2nc3c(c(N(C)C)n2)CCCC3)CC1` [compound 1750] was tested, and the class was 2 (Class 2: The value of percent of control at 10^−7 M was from 40% to 60% or the value of IC′50 was from 50 nM to 200 nM.). In the case of `CN(C)c1nc(N[C@H]2CC[C@@H](NC(=S)Nc3ccc(Br)cc3Cl)CC2)nc2c1CCCC2` [compound 1751], the class is reported as 1 (Class 1: The value of percent of control at 10^−7 M was less than 40% or the value of IC50 was less than 50 nM.).
